Assay [1] is described as follows: Apparent complexation constants of known chelating agents, Hg(II). The assay is classed as binding. To be noted: pH = 7.4; log Kapp(Hg) - log Kapp(Zn). The text has this: (§1) In general, the formation of a complex from a metal M and n ligands L is written: M+nL⇄[M(L)n]
(§2) Associated with this reaction is an apparent complexation constant log Kapp, where: Kapp=[ML]/[M][L]tot in which: • [ML] is the concentration of complex, • [M] is the concentration of metal, and • [L]tot is the concentration of […] ligand (whatever its protonated form).

Assay [2] is described as follows: Cu(I) affinity by competition with bathocuproine disulfonate (BCS), UV-visible. The assay is classed as binding. To be noted: for BCS equivalents (number of equivalents of BCS relative to Cu necessary to displace 50% of the copper complexed by the ligand): [Cu]0 = 0.9 [L]o, 20 mM phosphate buffer, pH 7.4, 298 K; for Cu/Zn Sel. (log Kapp(Cu) - log Kapp(Zn)): Cu(I) versus Zn(II); for Kapp for Cu(I): pH 7.4, 20 mM phosphate buffer. On the procedure:
Since the —SH thiol functions of the chelating agents are capable of becoming oxidized in air, all the solutions were prepared in a glovebox under an argon atmosphere. Ligand solutions were then prepared, before each experiment, using water that had been deoxygenated and purified with a Millipore Milli-Q® system containing 20 mM of a solution of phosphate buffer (pH=7.4) and of acetonitrile (v/v: 9/1).
This method uses 5,5′-dithiobis-2-nitrobenzoic acid (DNTB) as indicator, each free thiol group present in the ligand producing 1 equivalent of TNB^2− (ε^412 nm (TNB^2−)=14 150 M^−1.cm^−1, ε^412 nm being the molar extinction coefficient for TNB^2− at 412 nm). The concentrations of the ligand solution are between 30 and 100 μm.
The solutions of Cu(I) copper were prepared by dissolving an appropriate amount of Cu(CH3CN)4 PF6 in deoxygenated acetonitrile. The final concentration is determined by adding an excess of sodium bathocuproine disulfonate (Na2BCS) and by measuring the absorbance of the Cu(BCS)2^3− (λmax=483 nm, ε=13 300 M^−1.cm^−1).
The affinity constants were measured by means of a known competitor having a strong affinity for Cu(I), bathocuproine disulfonate (BCS), which forms Cu(I) complexes of known stability according to the reaction below:
The higher this percentage, the higher the affinity of the sulfur-containing ligand for Cu(I).
The complexes of Cu(I) copper with the ligands are quantitatively determined with bathocuproine disulfonate (BCS) with the aim of measuring their affinity constants. […] The formation of the complex is then carried out by stirring the mixture for 10 minutes under argon.
Aliquots of a solution of bathocuproine disulfonate (BCS) in the same buffer solution are then added to the ligand-copper complex.
The UV-visible spectra are then recorded, and the absorbance stability is verified before the addition of the other aliquots.

Assay [3] is described as follows: Hg(II) affinity by competition with EDTA. The assay is classed as binding. On the procedure: For Hg(II), which has a very high affinity for thiolate ligands, we performed a competition with EDTA having a known affinity constant (cf. Table IV) according to the following reaction: HgL+EDTA→L+HgEDTA
A solution of mercury is prepared by dissolving HgCl2 in water. An HgL complex is formed by adding aliquots of this mercury solution to a solution of ligand in a 20 mM phosphate buffer solution at pH=7.4, up to 0.9 equivalent. The change in the LMCT band for Hg(II) at 290 nm is subsequently followed by titration with a 5 mM solution of Na2EDTA.

The conditions of assay [4]: pH = 7.4; difference matches the Cu(II) and Zn(II) values of the table.
Source text: as §1, §2

The nature of assay [5]: Apparent complexation constants of known chelating agents, Cu(I). The assay is classed as binding. To be noted: pH = 7.4; difference matches the Cu(I) and Zn(II) values of the table.
Source text: Associated with this reaction is an apparent complexation constant log Kapp, where: Kapp=[ML]/[M][L]tot in which: • [ML] is the concentration of complex, • [M] is the concentration of metal, and • [L]tot is the concentration of free ligand (whatever its protonated form).

Like-named read-outs stand apart in the source and are kept apart here. Some results are limits rather than exact numbers.

For `OCC(S)CS` (stereo not drawn) [BAL, 2,3-dimercaptopropanol], in assay [1], the Hg/Zn selectivity amounted to 12.2.

For `O=C(CN(CC(=O)NC(CS)C(=O)O)CC(=O)NC(CS)C(=O)O)NC(CS)C(=O)O` (stereo not drawn) [Compound 3, NTA(CysOH)3], the “BCS equivalents (number of equivalents of BCS relative to Cu necessary to displace 50% of the copper complexed by the ligand)” value in assay [2] is 3.5 equivalents.

Take `CCOC(=O)C(CS)NC(=O)CN(CC(=O)NC(CS)C(=O)OCC)CC(=O)NC(CS)C(=O)OCC` (stereo not drawn) [Compound 4, NTA(CysOC2H5)3]: the “Cu/Ca Sel. (log Kapp(Cu) - log Kapp(Ca))” value in assay [2] (Cu(I) versus Ca(II)) is recorded as above 16. Further, in assay [2], the “Cu/Zn Sel. (log Kapp(Cu) - log Kapp(Zn))” value was 9.9, the “BCS equivalents (number of equivalents of BCS relative to Cu necessary to displace 50% of the copper complexed by the ligand)” value is 57 equivalents and the “Kapp for Cu(I)” value was 10^19. For the same molecule, in assay [3] (Hg(II) versus Ca(II)), the “Hg/Ca Sel. (log Kapp(Hg) - log Kapp(Ca))” value is given as above 19.5. For the same molecule, the “Hg/Zn Sel. (log Kapp(Hg) - log Kapp(Zn))” value in assay [3] (Hg(II) versus Zn(II)) is recorded as above 13.4.

Turning to `NC(=O)[C@H](CS)NC(=O)CN(CC(=O)N[C@@H](CS)C(N)=O)CC(=O)N[C@@H](CS)C(N)=O` [Compound 6, NTA(CysNH2)3], in assay [2], the “BCS equivalents (number of equivalents of BCS relative to Cu necessary to displace 50% of the copper complexed by the ligand)” value is 50 equivalents and the “Kapp for Cu(I)” value is on record as 10^19.

For the molecule `CCOC(=O)[C@H](CS)NC(=O)CN1CCN(CC(=O)N[C@@H](CS)C(=O)OCC)CCN(CC(=O)N[C@@H](CS)C(=O)OCC)CC1` [Compound 9, NOTA(CysOC2H5)3], in assay [2], the “Cu/Zn Sel. (log Kapp(Cu) - log Kapp(Zn))” value is given as 7.5-9.5 and the “BCS equivalents (number of equivalents of BCS relative to Cu necessary to displace 50% of the copper complexed by the ligand)” value is 12 equivalents.

In turn, `O=C(O)CN(CCN(CC(=O)O)CC(=O)O)CC(=O)O` [EDTA, ethylenediaminetetraacetic acid] displayed a Cu/Zn selectivity in assay [4] of 2.3. Further, the Hg/Zn selectivity in assay [1] is listed as 5.

As for `CC(C)(S)[C@@H](N)C(=O)O` [Pen, D-penicillamine], the Cu/Zn selectivity in assay [5] worked out at 2.5. The Hg/Zn selectivity in assay [1] is 9.1.

For `NCCNCCNCCN` [Trien, triethylenetetramine], the Cu/Zn selectivity in assay [4] worked out at 8.1. Further, in assay [1], the Hg/Zn selectivity is given as 12.7.
